Legend:
Type in all cases: functional
Rattus norvegicus [1] = experiment: Effective dose to cause hallucinogenic activity in rats using drug discrimination assay by intraperitoneal administration; details: ip
Rattus norvegicus [2] = experiment: Compound was evaluated for mean % LSD correct responses at a dos e of 15 mg/kg in rats using drug discrimination assay
Rattus norvegicus [3] = experiment: Compound was evaluated for mean % LSD correct responses at a dos e of 0.75 mg/kg in rats using drug discrimination assay
Rattus norvegicus [4] = experiment: Compound was evaluated for mean % LSD correct responses at a dos e of 10 mg/kg in rats using drug discrimination assay

SMILES | ED50 (Rattus norvegicus [1]) | further results
CCN(CC)C(=O)[C@@H]1C=C2c3cccc4[nH]cc(c34)C[C@H]2N(C)C1 [LYSERGIDE] | 0.0077 mg/kg | 
COc1cc(C2CC2N)c(OC)cc1C.Cl (stereo not drawn) | 20 mg/kg | 
COc1cc(OC)c(C2CC[C@H]2N)cc1OC (stereo partly drawn) |  | LSD (Rattus norvegicus [2]): 28%
COc1cc(C2CC2N)c(OC)cc1C (stereo not drawn) | 0.163 mg/kg | LSD (Rattus norvegicus [3]): 93%
CCN(CC)C(=O)[C@@H]1C=C2c3cccc4[nH]cc(c34)C[C@H]2N(C)C1.O=C(O)C(O)C(O)C(=O)O | 0.08 mg/kg | 
COc1cc(OC)c(C2CC[C@@H]2N)cc1OC (stereo partly drawn) |  | LSD (Rattus norvegicus [4]): 44%
COc1cc(C2CC[C@@H]2N)c(OC)cc1C (stereo partly drawn) |  | LSD (Rattus norvegicus [4]): 53%

Source: ChEMBL document CHEMBL1122748, “Synthesis and evaluation of substituted 2-phenylcyclobutylamines as analogues of hallucinogenic phenethylamines: lack of LSD-like biological activity” (1984)
